# Measurements: patent publication US20100099613A1, “PEPTIDES FOR INDUCING A CTL AND/OR HTL RESPONSE TO HEPATITIS C VIRUS” (GENIMMUNE, priority 2004, published 2010)
# Where a SMILES comes first, the peptide text is derived from it.
# Tests used:
# Balb/c (H2^bxd) mice = experiment: Activity of HTL epitopes, ELISPOT of CD4+ cells, pooled samples; format: in vivo, mouse; settings: Table 27, 2 experiments
# Description: (§1) The experiments to test the immunogenicity of HLA-DR peptides differs slightly from example 6 in that complete Freund's is used as the adjuvant. Peptides are tested in either DRB1*0401-Tg mice or surrogate mice such as Balb/c and CBA. In this particular example, HLA-restricted peptide responses are analyzed in pooled samples.
# [1] = test system: DRB1*0401-Tg mice (DR4 Tg); experiment: as above; format: in vivo, mouse; settings: Table 26, 2 experiments
# Description: as §1
Compound,Immunized SFC/10^6 ± St Error (Balb/c (H2^bxd) mice) [SFC/10^6],Immunized SFC/10^6 ± St Error [1] [SFC/10^6]
CC[C@H](C)[C@H](NC(=O)CNC(=O)[C@@H](NC(=O)[C@H](C)N)C(C)C)C(=O)N[C@@H](Cc1ccccc1)C(=O)N[C@@H](CCCNC(=N)N)C(=O)N[C@@H](C)C(=O)N[C@@H](C)C(=O)N[C@H](C(=O)N[C@@H](CS)C(=O)N[C@H](C(=O)N[C@@H](CCCNC(=N)N)C(=O)NCC(=O)N[C@H](C(=O)N[C@@H](C)C(=O)O)C(C)C)[C@@H](C)O)C(C)C,1330.4 ± 111.9,
CC(C)C[C@H](NC(=O)[C@@H](NC(=O)[C@@H](NC(=O)[C@@H](N)CC(C)C)C(C)C)C(C)C)C(=O)N[C@@H](C)C(=O)N[C@H](C(=O)N[C@@H](C)C(=O)N[C@H](C(=O)N1CCC[C@H]1C(=O)N1CCC[C@H]1C(=O)NCC(=O)N[C@@H](CO)C(=O)N[C@H](C(=O)N[C@H](C(=O)N[C@H](C(=O)O)C(C)C)[C@@H](C)O)C(C)C)[C@@H](C)O)[C@@H](C)O (H-LVVLATATPPGSVTV-OH; N-terminus and C-terminus assumed),,111.7 ± 42.3
